Results reported in article PMC6273978, “Synthesis and Pharmacological Evaluation of Novel Pleuromutilin Derivatives with Substituted Benzimidazole Moieties” (Molecules, 2016).
Where a name gives a salt, the structure may show the parent alone.

What was measured:
[1] = system: Escherichia coli (E. coli); assay: MIC testing, agar dilution method; assay type: cell-based; details: 36.5 °C, 24–48 h
Description: (§1) The synthesized pleuromutilin derivatives 3 and 4a–l, with tiamulin fumarate used a as reference drug, were screened for their in vitro antibacterial activity against Escherichia coli (E. coli), Staphylococcus aureus (S. aureus), Methicillin-resistant Staphylococcus aureus (MRSA), Staphylococcus vitulinus (S. vitulinus), Staphylococcus warneri (S. warneri), and Staphylococcus haemolyticus (S. haemolyticus). The antibacterial activities are reported in Table 1 as the minimum inhibitory concentration (MIC) using the agar dilution method. The MICs of the 13 new pleuromutilin derivatives in vitro against E. coli ranged from 10 to 80 μg/mL; against S. aureus, MRSA, S. vitulinus, S. warneri, and S. haemolyticus ranged from 0.156 to 40 μg/mL, respectively.
(§2) The MIC for the synthesized compounds (3 and 4a–l) and tiamulin fumarate used as a reference drug were determined using the agar dilution method according to the National Committee for Clinical Laboratory Standards (NCCLS). Tested compounds were dissolved in 25%–40% DMSO to a solution with a concentration of 1280 µg/mL, whereas tiamulin fumarate was directly dissolved in 10 mL of distilled water at the same concentration as the tested compounds. All the solutions were then diluted twofold with sterile water to provide 11 dilutions (final concentration is 0.625 µg/mL). A 2 mL volume of the 2-fold serial dilution of each test compound/drug was incorporated into 18 mL of hot Muellere-Hinton agar medium. Inoculums, including five Gram (+), S. aureus, MRSA, S. vitulinus, S. warneri, S. haemolyticus, and one Gram (−), E. coli were prepared from blood slants and adjusted to approximately 10^5–10^6 CFU/mL with sterile saline (0.90% NaCl). A 10 µL amount of bacterial suspension was spotted onto Muellere-Hinton agar plates containing serial dilutions of the compounds/drug. The plates were incubated at 36.5 °C for 24–48 h. The same procedure was repeated in triplicate.

[2] = system: Methicillin-resistant Staphylococcus aureus (MRSA); assay: MIC testing, agar dilution method; assay type: cell-based; details: 36.5 °C, 24–48 h
Description: as §1, §2

[3] = system: Staphylococcus aureus (S. aureus); assay: MIC testing, agar dilution method; assay type: cell-based; details: 36.5 °C, 24–48 h
Description: as §1, §2

[4] = system: Staphylococcus haemolyticus (S. haemolyticus); assay: MIC testing, agar dilution method; assay type: cell-based; details: 36.5 °C, 24–48 h
Description: as §1, §2

[5] = system: Staphylococcus vitulinus (S. vitulinus); assay: MIC testing, agar dilution method; assay type: cell-based; details: Mammaliicoccus vitulinus, 36.5 °C, 24–48 h
Description: as §1, §2

[6] = system: Staphylococcus warneri (S. warneri); assay: MIC testing, agar dilution method; assay type: cell-based; details: 36.5 °C, 24–48 h
Description: as §1, §2

[7] = system: E. coli; assay: Oxford cup assay, zone of inhibition; assay type: cell-based; details: Escherichia coli
Protocol: (§3) The Oxford cup assays were carried out to evaluate the antibacterial activities against the above-mentioned six bacterial strains. The zones of inhibition for two concentrations (320 and 160 μg/mL) of the synthetic compounds and tiamulin fumarate were measured. The results of Oxford cup assay correspond with that obtained by agar dilution method (MICs) as a whole.
(§4) The procedure for Oxford cup assays was the same as that previously reported. Briefly, inoculums were prepared in 0.9% saline using McFarland standard and spread uniformly on nutrient agar plates. The 320 and 160 µg/mL of all the tested compounds were added individually into the Oxford cups that were placed at equal distances above the agar surfaces. The zone of inhibition for each concentration was measured after a 24–36 h incubation at 37 °C. The same procedure was repeated in triplicate.

[8] = system: MRSA; assay: Oxford cup assay, zone of inhibition; assay type: cell-based; details: Staphylococcus aureus
Protocol: as §3, §4

[9] = system: S. aureus; assay: Oxford cup assay, zone of inhibition; assay type: cell-based; details: Staphylococcus aureus
Protocol: as §3, §4

[10] = system: S. haemolyticus; assay: Oxford cup assay, zone of inhibition; assay type: cell-based; details: Staphylococcus haemolyticus
Protocol: as §3, §4

[11] = system: S. warneri; assay: Oxford cup assay, zone of inhibition; assay type: cell-based; details: Staphylococcus warneri
Protocol: as §3, §4

[12] = system: S. vitulinus; assay: Oxford cup assay, zone of inhibition; assay type: cell-based, Staphylococcus vitulinus; details: Mammaliicoccus vitulinus
Protocol: as §3, §4

[13] = system: MRSA; assay: Inhibition of short-term bacterial growth (absorbance at 450 nm); assay type: cell-based; details: Staphylococcus aureus, 3.5 h incubation, Mueller-Hinton broth
Protocol: (§5) Compound 3, being the best antibacterial derivative, was chosen for further evaluation on its antibacterial effect to inhibit short-term S. aureus and MRSA growth (Figure 2). This includes the GI50 of tiamulin fumarate for S. aureus and MRSA.
(§6) The inhibition activities of test compounds were evaluated by measuring the absorbance of the bacterial suspension. In brief, inoculums were prepared from blood slants and adjusted to approximately 10^6 CFU/mL in Muellere-Hinton broth. The 0.0625, 0.125, 0.25, 0.5, 1, and 2 µM of tested compounds were prepared and added to the prepared inoculums. A sample of inoculum with no compound was used as control. The absorbance of bacterial suspension at 450 nm was measured using an UV spectrophotometer after 3.5 h of incubation, and the inhibition was calculated as 1 − (A^P/A^0), where A^p and A^0 are the absorbance of bacterial suspension in the presence and absence of compounds, respectively. The same procedure was independently repeated in triplicate.

[14] = system: S. aureus; assay: as above; assay type: cell-based; details: Staphylococcus aureus, 3.5 h, read-out: GI50 S. aureus growth
Protocol: as §5, §6

SMILES: C=C[C@]1(C)C[C@@H](OC(=O)CSCCN(CC)CC)[C@]2(C)[C@H](C)CC[C@]3(CCC(=O)[C@H]32)[C@@H](C)[C@@H]1O [Tiamulin, tiamulin fumarate, reference compound]
- MIC [1]: 1.25 µg/mL
- MIC [2]: 0.156 µg/mL
- MIC [3]: 0.156 µg/mL
- MIC [4]: 0.156 µg/mL
- MIC [5]: 0.156 µg/mL
- MIC [6]: 0.156 µg/mL
- zone of inhibition at 160 µg/mL ([7]; 160 µg/mL): 25.8 mm
- zone of inhibition at 320 µg/mL ([7]; 320 µg/mL): 27.1 mm
- zone of inhibition at 160 µg/mL ([8]; 160 µg/mL): 28.1 mm
- zone of inhibition at 320 µg/mL ([8]; 320 µg/mL): 30.5 mm
- zone of inhibition at 160 µg/mL ([9]; 160 µg/mL): 25.1 mm
- zone of inhibition at 320 µg/mL ([9]; 320 µg/mL): 28.2 mm
- zone of inhibition at 160 µg/mL ([10]; 160 µg/mL): 28.8 mm
- zone of inhibition at 320 µg/mL ([10]; 320 µg/mL): 31.5 mm
- zone of inhibition at 160 µg/mL ([11]; 160 µg/mL): 22.4 mm
- zone of inhibition at 320 µg/mL ([11]; 320 µg/mL): 30.5 mm
- zone of inhibition at 160 µg/mL ([12]; 160 µg/mL): 18.6 mm
- zone of inhibition at 320 µg/mL ([12]; 320 µg/mL): 30.9 mm
- GI50 [13]: 254 nM
- GI50 [14]: 98.3 nM
